Laboratory results: US20150250826A1, “ISOLATION AND CHARACTERIZATION OF MUSCLE REGENERATING CELLS” (Joslin Diabetes Center, Inc., priority 2012, published 2015)

Tests used:
Assay type in all cases: cell-based
[1] = test system: human rhabdomyosarcoma cell line RD; assay: In vitro growth assay (MTT) in human rhabdomyosarcoma cell line RD; conditions: 96 hours
Source text: (§1) FIG. 8: In vitro screening of candidate targets. Sarcoma cells were exposed to increasing concentrations of Torin (10, 50, 250 nMol), Rapamycin (10, 50, 100 nMol), RL0061425 (10, 50, 100, 500, 1000 nMol), SB525334 (1, 10, 50, 100, 500 nMol), SD208 (10, 50, 100, 500, 1000 nMol), and Ethanol and DMSO (as a control).
To begin to evaluate the effects of candidate target genes in sarcoma cells, we have established in vitro assays in which the proliferation of sarcoma cell lines exposed to selected chemical compounds is measured by MTT (3-(4,5-Dimethylthiazol-2-yl)-2,5-diphenyltretrazolium bromide) assay at defined time points. All experiments are carried out in low-passage cell lines established from modeled Kras rhabdomyosarcomas of satellite cell origin. For comparison, we also studied the effects of these compounds in the human embryonal rhabdomyosarcoma cell line RD. In these studies, we focused first on a small set of readily available chemical compounds (obtained from D. Guertin and L. Rubin at the University of Massachusetts and the Harvard Stem Cell Institute, respectively), whose targets include the TGFβ and mammalian target of rapamycin (mTOR) signaling pathways. […]

[2] = test system: mouse Kras; p16p19null sarcoma line; assay: In vitro growth assay (MTT) in mouse Kras; p16p19null sarcoma line; conditions: 96 hours
Source text: as §1
(§2) To begin to evaluate the effects of candidate target genes in sarcoma cells, we have established in vitro assays in which the proliferation of sarcoma cell lines exposed to selected chemical compounds is measured by MTT (3-(4,5-Dimethylthiazol-2-yl)-2,5-diphenyltretrazolium bromide) assay at defined time points. All experiments are carried out in low-passage cell lines established from modeled Kras rhabdomyosarcomas of satellite cell origin. For comparison, we also studied the effects of these compounds in the human embryonal rhabdomyosarcoma cell line RD. In these studies, we focused first on a small set of readily available chemical compounds (obtained from D. Guertin and L. Rubin at the University of Massachusetts and the Harvard Stem Cell Institute, respectively), whose targets include the TGFβ and mammalian target of rapamycin (mTOR) signaling pathways. As discussed above, the TGFβ pathway was implicated in sarcoma pathogenesis by our prior bioinformatics analyses. mTOR was tested as well because Ras pathway activation has been reported to promote mTOR signaling (Carriere, A., Romeo, Y., Acosta-Jaquez, H. A., Moreau, J., Bonneil, E., Thibault, P. Fingar, D. C., Roux, P. P., ERK1/2 Phosphorylate Raptor to Promote Ras-dependent Activation of mTOR Complex 1 (mTORC1). J Biol Chem 286 (1), 567 (2011)), and many genes on our list appear to interact with this signaling pathway (data not shown). Finally, gene ontology analyses of the 146 sarcoma-associated genes discussed above identified 61 genes that function in cell growth and proliferation (i.e., key cellular activities often regulated by mTOR).
(§3) Cell lines from the modeled sarcomas were exposed to graded concentrations of mTOR inhibitors (Rapamycin, Torin) or TGF inhibitors (RL0061425, SB525334, SD208). […]

[3] = test system: mouse Kras; p16p19null rhabdomyosarcoma cell line; assay: In vitro growth assay (MTT) in mouse Kras; p16p19null rhabdomyosarcoma cell line; conditions: 48 hours
Source text: as §1, §2, §3

[4] = tested at 10, 50, 100, 500, 1000 nMol

Cc1cccc(-c2[nH]c(C(C)(C)C)nc2-c2ccc3nccnc3c2)n1 [SB525334]
cell growth (fold-increase in MTT-uptake) ([1]; 1, 10, 50, 100, 500 nMol): no major effect | cell growth (fold-increase in MTT-uptake) ([2]; 1, 10, 50, 100, 500 nMol): no major effect | cell growth (fold-increase in MTT-uptake) ([3]; 1, 10, 50, 100, 500 nMol): no major effect

Fc1ccc(Cl)cc1-c1nc(Nc2ccncc2)c2nccnc2n1 [SD208]
concentration at which growth was inhibited (MTT-uptake) [2, 4]: ≥ 500 nmol | concentration at which growth was inhibited (MTT-uptake) [3, 4]: ≥ 500 nmol

Torin
cell growth (fold-increase in MTT-uptake) ([1]; 250 nMol): reduced the growth | cell growth (fold-increase in MTT-uptake) ([2]; 250 nMol): reduced the growth | cell growth (fold-increase in MTT-uptake) ([3]; 250 nMol): reduced the growth
